{
  "source": "patent US9975879B2",
  "about": "“Beta lactams as modulators of glutamate uptake and methods for use thereof” (Temple University of the Commonwealth System of Higher …, priority 2013, dated 2018)",
  "key": {"[1]": {"system": "amyotrophic lateral sclerosis", "details": "50 mg daily; after 15 months of treatment; cited from earlier work"}, "[2]": {"system": "GLT-1", "details": "cited from earlier work; for expression of GLT-1: SOD1 mouse model of ALS"}, "[3]": {"details": "Nakagura et al. (2005); cited from earlier work"}, "[4]": {"system": "GLT-1", "details": "Rothstein et al., 2005; Lee et al., 2008; cited from earlier work"}, "[5]": {"details": "rats; Sari et al., 2009; Knackstead et al., 2010; cited from earlier work"}, "[6]": {"system": "cysteine-glutamate exchanger", "details": "decreased by repeated cocaine administration; cited from earlier work"}, "[7]": {"details": "cited from earlier work"}, "[8]": {"system": "planarian", "details": "planarian model; Rawls et al., 2008; cited from earlier work"}, "[9]": {"system": "GLT-1", "details": "decreased by repeated cocaine administration; cited from earlier work"}, "[10]": {"system": "GLT-1", "details": "50 mg/kg daily IP, last 6 days of extinction training; cocaine self-administering rats; nucleus accumbens core, normalized to calnexin; FIG. 1"}},
  "note": "Like-named read-outs stand apart in the source and are kept apart here.",
  "data": [
    {"smiles": "Nc1nc2ccc(OC(F)(F)F)cc2s1", "note": "[Riluzole]", "values": [
      {"measurement": "increase in life expectancy", "setting": "[1]", "value": "2-3 months"}
    ]},
    {"smiles": "COc1ccc2c(c1)[nH]c1c(C)nccc12", "note": "[Harmine]", "values": [
      {"measurement": "expression of GLT-1", "setting": "[2]", "value": "increases GLT-1 expression"}
    ]},
    {"smiles": "CC1CC=NN1C(=O)c1cccnc1", "note": "(stereo not shown) [MS-153]", "values": [
      {"measurement": "conditioned place preference induced by cocaine", "setting": "[3]", "value": "inhibited the conditioned place preference induced by cocaine"}
    ]},
    {"smiles": "CO/N=C(\\C(=O)N[C@@H]1C(=O)N2C(C(=O)O)=C(CSc3nc(=O)c(=O)[nH]n3C)CS[C@H]12)c1csc(N)n1", "note": "[ceftriaxone]", "values": [
      {"measurement": "GLT-1 expression", "setting": "[4]", "value": "stimulator of GLT-1 expression"},
      {"measurement": "relapse to cocaine seeking", "setting": "[5]", "value": "prevents relapse to cocaine seeking"},
      {"measurement": "cysteine-glutamate exchanger levels", "setting": "[6]", "value": "restores"},
      {"measurement": "free, unbound cerebrospinal fluid/plasma ratio based on Cmax", "setting": "[7]; Chadwick et al., 1983", "value": "2-13%"},
      {"measurement": "free, unbound cerebrospinal fluid/plasma ratio based on AUCs", "setting": "[7]; Lutsar and Friedland, 2000", "value": 1, "unit": "%"},
      {"measurement": "abstinence withdrawal from cocaine", "setting": "[8]", "value": "inhibits abstinence withdrawal from cocaine"},
      {"measurement": "GLT-1 levels", "setting": "[9]", "value": "restores"},
      {"measurement": "expression of GLT-1", "setting": "[2]", "value": "increases the expression of GLT-1"},
      {"measurement": "mean survival time", "setting": "[2]; SOD1 mouse", "value": "increases the mean survival time"}
    ]},
    {"smiles": "C[C@@H](O)[C@H]1C(=O)N[C@@H]1[C@@H](C)C(=O)N1CCN(C)CC1", "note": "[MC-100093]", "values": [
      {"measurement": "GLT-1 expression", "setting": "[10]", "value": "restored GLT-1 expression levels to normal"}
    ]}
  ]
}
